Assay results taken from patent publication US20140094465A1, “Compounds as S-Nitrosoglutathione Reductase Inhibitors” (N30 PHARMACEUTICALS, INC., priority 2011, published 2014).

What was measured:
[1] = tested on: cigarette smoke-induced COPD; test: Subchronic (11 day) cigarette smoke exposure COPD model; type: in vivo, mouse; settings: subchronic 11 day model
Description: Infiltration of inflammatory cells into the bronchoalveolar lavage fluid (BALF) and BALF levels of chemokines involved in inflammation and tissue turnover/repair were measured to assess the influences of GSNOR inhibitors on some of the early events associated with the initiation and progression of COPD. […] In animal models, changes in lung pathology are only evident after extended (several months) duration of exposure to cigarette smoke, thus making chronic models prohibitive as effective screening tools. […] The key roles of inflammation in the initiation and progression of COPD, make these short duration models relevant for initial tests of efficacy of novel therapeutics. Female C57Bl/6 mice (N=10 per group) were exposed to cigarette smoke generated from Marlboro 100 cigarettes without filters. Exposure times were 25 min. on study day 1, 35 min. on study day 2, and 45 min. on study days 3 to 11. GSNOR inhibitors were administered one hour prior to smoke exposure on each day. GSNOR inhibitors were dosed orally at 1 to 10 mg/kg/day for 11 days. […] The effect of GSNOR inhibitors were compared to vehicle treated controls and expressed as percent inhibition of the cigarette smoke induced increases in BALF cell numbers. Roflumilast was used as the positive control for the study and was dosed at 5 mg/kg/day. A group of naïve mice (N=10) was exposed to air and dosed with vehicle as a negative control for the study.

[2] = tested on: cigarette smoke-induced COPD; test: Acute (4 day) cigarette smoke exposure COPD model; type: in vivo, mouse; settings: acute 4 day smoke model
Description: The efficacy of GSNOR inhibitors was assessed in a mouse model of chronic obstructive pulmonary disease (COPD) induced by short duration (4 days or 11 days) of exposure to cigarette smoke. Infiltration of inflammatory cells into the bronchoalveolar lavage fluid (BALF) and BALF levels of chemokines involved in inflammation and tissue turnover/repair were measured to assess the influences of GSNOR inhibitors on some of the early events associated with the initiation and progression of COPD.
Efficacy of GSNOR inhibitors against COPD was explored using acute (4 day) and subchronic (11 day) models of cigarette smoke-induced COPD in mice. […] In animal models, changes in lung pathology are only evident after extended (several months) duration of exposure to cigarette smoke, thus making chronic models prohibitive as effective screening tools. More recently, models exploring inflammatory responses after short duration (2 weeks or less) of smoke exposure in mice have been utilized as tools for screening efficacy and mechanisms of action of novel therapeutics against COPD. The key roles of inflammation in the initiation and progression of COPD, make these short duration models relevant for initial tests of efficacy of novel therapeutics.
Female C57Bl/6 mice (N=8 per group) were exposed to cigarette smoke using a whole body exposure chamber. Mice were exposed daily for 4 consecutive days to 4 cycles of smoke from 6 sequential cigarettes (Kentucky 3R4F without filter) with a 30 minute smoke free interval between cycles. GSNOR inhibitors were administered daily via oral dosing at 10 mg/kg/day for 7 days starting 2 days prior to smoke exposure and continuing 1 day post-exposure. The effects of GSNOR inhibitors were assessed by quantitating the numbers of total cells, leukocytes, and leukocytes differentials in the BALF via light microscopy and the levels of BALF chemokines via ELISA at approximately 24 h after the last smoke exposure. The effect of GSNOR inhibitors were compared to vehicle treated controls. The PDE4 inhibitor, roflumilast, was used as the positive control for the study. A group of naïve mice (N=8) was exposed to air and used as a negative control for the study.

Structure (SMILES) | inhibition of smoke-induced increase in lymphocytes in BAL ([1]; oral 1 mg/kg/day for 11 days) [%] | inhibition of smoke-induced increase in macrophages in BAL ([1]; oral 1 mg/kg/day for 11 days) [%] | inhibition of smoke-induced increase in neutrophils in BAL ([1]; oral 1 mg/kg/day for 11 days) [%] | inhibition of smoke-induced increase in total cells in BAL ([1]; oral 1 mg/kg/day for 11 days) [%] | effects compared with roflumilast ([1]; roflumilast 5 mg/kg/day) | effects compared with roflumilast [2] | BALF chemokines ([2]; oral 10 mg/kg/day for 7 days) | inhibition of smoke-induced increase in eosinophils in BALF ([1]; oral 10 mg/kg/day for 11 days) [%] | inhibition of smoke-induced increase in lymphocytes in BALF ([1]; oral 10 mg/kg/day for 11 days) [%] | inhibition of smoke-induced increase in macrophages in BALF ([1]; oral 10 mg/kg/day for 11 days) [%] | inhibition of smoke-induced increase in neutrophils in BALF ([1]; oral 10 mg/kg/day for 11 days) [%] | inhibition of smoke-induced increase in total cells in BALF ([1]; oral 10 mg/kg/day for 11 days) [%]
O=C(O)c1ccc(-c2c(C(F)(F)F)oc3cc(O)ccc3c2=O)c(F)c1 [IV-38] | 62 | 44 | 68 | 53 | comparable to those of roflumilast | – | – | – | – | – | – | –
O=c1c2ccc(O)cc2oc(C(F)(F)F)c1[C@H]1CC[C@H](C(=O)O)CC1 [IV-25] | – | – | – | – | – | comparable to or greater than those observed for roflumilast | restored BALF chemokines towards levels observed in naïve mice | 57 | 24 | 28 | 25 | 26
